In US5349127A, “Expression of herbicide metabolizing cytochromes P450” (priority 1992, dated 1994):

Experiments:
[1] = test system: S. lividans pCAO200SU1-FeS-B#9; experiment: Sulfonylurea metabolism by washed cell suspension (Examples 6-9); format: in vitro ADME, Streptomyces lividans
[2] = test system: S. griseolus PH2001 induced with 10001; experiment: Sulfonylurea metabolism by washed cell suspension (Examples 11-12); format: in vitro ADME, Streptomyces griseolus
Procedure: (§1) A 100 ml culture of S. griseolus ATCC 11796 in sporulation broth and a 50 ml culture of S. lividans transformed with pCAO400 in YEME broth were prepared and incubated for 24 hours as described. At that time, the S. griseolus culture was split into two 50 ml aliquots into two separate flasks and 25 ml of fresh sporulation broth was added to each and 9 mg of […] was added to one of these cultures to induce cytochrome P450SU1 expression. Fresh YEME broth (25 ml) was added to the S. lividans culture. After an additional 6 hours growth at 30° C., the cells in each culture were harvested as described above, washed twice with MOPS (50 mM, pH 7.2) and recentrifuged. The cell pellets were resuspended in four cell volumes of MOPS (50 mM, pH 7.2) containing 0.2% glucose and about 100 μg/ml of 10004. These cell suspensions were incubated at 30° C. with shaking and aliqouts were taken at 2 and 5.5 hours. The supernatant of each aliquot was analyzed by HPLC and the concentrations of the sulfonylurea compound 10004 and its metabolite 10005 were determined.
(§2) S. lividans transformed respectively with pCAO200SU1-FeS-B#9, pCAO200SU#112and pCAO200 were cultured for 36 hours in 400 ml of YEME broth at 30° C. S. griseolus ATCC 11796 was similarly cultured in 400 ml of sporulation broth. Six hours before harvesting the cells, 150 ml of fresh YEME broth was added to the S. lividans cells, and the S. griseolus cells were split into two 200 ml cultures with 100 ml of fresh sporulation broth added to each. 10001 (36 mg) was added to one of the two S. griseolus cultures to induce cytochrome P450SU1. The cells were prepared as described above in Example 5 and the concentrations of the sulfonylurea compound 10006 and its metabolites 10007, 10008 or 10009 were determined.
(§3) S. lividans transformed with pCAO200SU2-FeS-A#11 and S. lividans transformed with pCAO200 were cultured for 36 hours in 400 ml of YEME broth at 30° C. S. griseolus PH2001 (mutant without SU1) was cultured in 400 ml of sporulation broth at 30° C. Nine hours before harvesting the cells, the S. griseolus PH2001 culture was divided into two 200 ml cultures. Both received 100 ml of fresh sporulation broth and one received 36 mg of 10001 to induce cytochrome P450SU2. The cells were prepared as described above in Example 6 and the concentrations of the sulfonylurea compound 10001 and its metabolites 10002 and 10003 were determined.

[3] = test system: S. griseolus PH2001 uninduced; experiment: as above; format: in vitro ADME, Streptomyces griseolus
Procedure: as §1, §2, §3

S. griseus PH3817 = experiment: Metabolism of 10001 by strains transformed with pCS325 (Example 15); format: in vitro ADME, Streptomyces griseus; conditions: substrate 10001
Procedure: (§4) S. griseolus PH2003, S. griseus PH4001, S. ambofaciens PH4002, and S. lividans JI1326 were transformed with the plasmid pPAT108. The transformed S. griseolus strain, PH3826, was cultured for 24 hours in 150 mls of sporulation broth with 5 ug/ml thiostrepton. The transformed S. griseus strain, PH3832, and the transformed S. ambofaciens strain, PH3834, were cultured for 24 hours in 150 mls of trypticase soy broth with 5 ug/ml thiostrepton. The transformed S. lividans strain, PH3822, was similarly cultured in 150 mls of YEME broth with 5 ug/ml thiostrepton. Three hours before harvesting the cells, 50 mls of fresh medium of the same type with 5 ug/ml thiostrepton was added to each culture. The cells from each of the cultures were harvested by centrifugation, washed twice with 50 mMMOPS, pH7.2 and resuspended in five cell volumes of MOPS containing 0.2% glucose and 120 ug/ml of the sulfonylurea 10001. The cell suspensions were incubated at 30° C. with shaking and aliquots were removed at 0.5, 1, 2 and 4 hours. The supernatant of each aliquot was analyzed by HPLC and the concentration of the sulfonylurea compound 10001 and its metabolites 10002 and 10003 were determined.
(§5) S. griseolus PH2003, S. griseus PH4001, S. ambofaciens PH4002, and S. lividans JI1326 were transformed with the plasmid pCS325. Cells of the transformed strains of S. griseolus PH3809, S. griseus PH3817, S. ambofaciens PH3818, and S. lividans PH3816, were grown and treated as described in Example 14, and the concentrations of the sulfonylurea compound 10001 and its metabolites 10002 and 10003 were determined.

S. lividans PH3816 = experiment: as above; format: in vitro ADME, Streptomyces lividans; conditions: substrate 10001
Procedure: as §4, §5

S. lividans pCAO200 = experiment: Sulfonylurea metabolism by washed cell suspension (Examples 6-9); format: in vitro ADME, Streptomyces lividans

Work on `COc1cc(Cl)nc(NC(=O)NS(=O)(=O)c2ccccc2C(=O)O)n1` [compound 10003, N-[(4-chloro-6-methoxy-pyrimidin-2-yol)aminocarbonyl]-2-carboxybenzenesulfonamide] yielded a concentration in supernatant ([1]; substrate 10001, 2 h) of 86 µM, a concentration in supernatant ([1]; substrate 10001, 4 h) of 95 µM and a concentration in supernatant ([1]; substrate 10001, 6 h) of 94 µM. It also gave a concentration in supernatant ([2]; substrate 10001, 2 h) of 7 µM, a concentration in supernatant ([2]; substrate 10001, 4 h) of 10 µM and a concentration in supernatant ([2]; substrate 10001, 6 h) of 13 µM. For the same compound, the concentration in supernatant ([3]; substrate 10001, 2 h) was 1 µM, the concentration in supernatant ([3]; substrate 10001, 4 h) was 2 µM and the concentration in supernatant ([3]; substrate 10001, 6 h) was 3 µM. The concentration in supernatant (S. griseus PH3817; 0.5 h) was 3 µM, the concentration in supernatant (S. griseus PH3817; 1.0 h) was 7 µM and the concentration in supernatant (S. griseus PH3817; 2.0 h) was 16 µM. It also gave a concentration in supernatant (S. griseus PH3817; 4.0 h) of 23 µM, a concentration in supernatant (S. lividans PH3816; 0.5 h) of 1 µM and a concentration in supernatant (S. lividans PH3816; 1.0 h) of 3 µM. It also gave a concentration in supernatant (S. lividans PH3816; 2.0 h) of 7 µM, a concentration in supernatant (S. lividans PH3816; 4.0 h) of 11 µM and a concentration in supernatant (S. lividans pCAO200; substrate 10001, 2 h) of 1 µM. For the same compound, the concentration in supernatant (S. lividans pCAO200; substrate 10001, 4 h) was 1 µM and the concentration in supernatant (S. lividans pCAO200; substrate 10001, 6 h) was 2 µM.
For `COC(=O)c1ccccc1S(=O)(=O)NC(=O)Nc1nc(C)cc(C)n1` [compound 10010, N-[(4,6-dimethylpyrimidin-2-yl)aminocarbonyl]-2-methoxycarbonylbenzenesulfonamide], the concentration in supernatant ([1]; substrate 10010, 2 h) was 35 µM, the concentration in supernatant ([1]; substrate 10010, 4 h) was 11 µM and the concentration in supernatant ([1]; substrate 10010, 6 h) was 4 µM. It also gave a concentration in supernatant ([2]; substrate 10010, 2 h) of 64 µM, a concentration in supernatant ([2]; substrate 10010, 4 h) of 56 µM and a concentration in supernatant ([2]; substrate 10010, 6 h) of 50 µM. For the same compound, the concentration in supernatant ([3]; substrate 10010, 2 h) was 89 µM, the concentration in supernatant ([3]; substrate 10010, 4 h) was 88 µM and the concentration in supernatant ([3]; substrate 10010, 6 h) was 89 µM. The concentration in supernatant (S. lividans pCAO200; substrate 10010, 2 h) was 90 µM, the concentration in supernatant (S. lividans pCAO200; substrate 10010, 4 h) was 89 µM and the concentration in supernatant (S. lividans pCAO200; substrate 10010, 6 h) was 89 µM.
`CCOC(=O)c1ccccc1S(=O)(=O)NC(=O)Nc1nc(Cl)cc(OC)n1` [compound 10001, N-[(4-chloro-6-methoxy-pyrimidin-2-yl)aminocarbonyl]-2-ethoxycarbonylbenzenesulfonamide] was tested, and the concentration in supernatant ([1]; substrate 10001, 2 h) was 28 µM, the concentration in supernatant ([1]; substrate 10001, 4 h) was 0 µM and the concentration in supernatant ([1]; substrate 10001, 6 h) was 0 µM. It also gave a concentration in supernatant ([2]; substrate 10001, 2 h) of 286 µM, a concentration in supernatant ([2]; substrate 10001, 4 h) of 256 µM and a concentration in supernatant ([2]; substrate 10001, 6 h) of 234 µM. For the same compound, the concentration in supernatant ([3]; substrate 10001, 2 h) was 271 µM, the concentration in supernatant ([3]; substrate 10001, 4 h) was 264 µM and the concentration in supernatant ([3]; substrate 10001, 6 h) was 244 µM. It also gave a concentration in supernatant (S. griseus PH3817; 0.5 h) of 226 µM, a concentration in supernatant (S. griseus PH3817; 1.0 h) of 181 µM and a concentration in supernatant (S. griseus PH3817; 2.0 h) of 69 µM. It also gave a concentration in supernatant (S. griseus PH3817; 4.0 h) of 0 µM, a concentration in supernatant (S. lividans PH3816; 0.5 h) of 331 µM and a concentration in supernatant (S. lividans PH3816; 1.0 h) of 339 µM. For the same compound, the concentration in supernatant (S. lividans PH3816; 2.0 h) was 299 µM, the concentration in supernatant (S. lividans PH3816; 4.0 h) was 248 µM and the concentration in supernatant (S. lividans pCAO200; substrate 10001, 2 h) was 301 µM. The concentration in supernatant (S. lividans pCAO200; substrate 10001, 4 h) was 287 µM and the concentration in supernatant (S. lividans pCAO200; substrate 10001, 6 h) was 313 µM.
`CCOC(=O)c1ccccc1S(=O)(=O)NC(=O)Nc1nc(O)cc(Cl)n1` [compound 10002, N-[(4-chloro-6-hydroxy-pyrimidin-2-yl)aminocarbonyl]-2-ethoxycarbonylbenzenesulfonamide] was tested, and the concentration in supernatant ([1]; substrate 10001, 2 h) was 105 µM, the concentration in supernatant ([1]; substrate 10001, 4 h) was 116 µM and the concentration in supernatant ([1]; substrate 10001, 6 h) was 112 µM. For the same compound, the concentration in supernatant (S. griseus PH3817; 0.5 h) was 37 µM, the concentration in supernatant (S. griseus PH3817; 1.0 h) was 73 µM and the concentration in supernatant (S. griseus PH3817; 2.0 h) was 167 µM. It also gave a concentration in supernatant (S. griseus PH3817; 4.0 h) of 220 µM, a concentration in supernatant (S. lividans PH3816; 0.5 h) of 19 µM and a concentration in supernatant (S. lividans PH3816; 1.0 h) of 36 µM. The concentration in supernatant (S. lividans PH3816; 2.0 h) was 68 µM, the concentration in supernatant (S. lividans PH3816; 4.0 h) was 103 µM and the concentration in supernatant (S. lividans pCAO200; substrate 10001, 2 h) was 2 µM. For the same compound, the concentration in supernatant (S. lividans pCAO200; substrate 10001, 4 h) was 1 µM and the concentration in supernatant (S. lividans pCAO200; substrate 10001, 6 h) was 2 µM.
